Activity calls are given as the source filed them. No cut-off for these calls is given here.
Experiments:
Quadruplex DNA [1] = assay: Binding affinity to human telomeric G-quadruplex HT21 DNA assessed as increase in fluorescence intensity at 5 uM by fluorescence emission spectra analysis; assay type: nucleic-acid assay
MIA PaCa-2 = assay: Cytotoxicity against human MIA PaCa-2 cells assessed as inhibition of cell growth by CellTiter-Glo assay; assay type: functional, cell-based
Quadruplex DNA [2] = assay: Binding affinity to human telomeric G-quadruplex HT21 DNA assessed as dissociation constant by fluorescence titration spectra analysis; assay type: nucleic-acid assay
Quadruplex DNA [3] = assay: Binding affinity to human telomeric G-quadruplex HT21 DNA assessed as increase in CD signal at 15 uM at 250 nm wavelength by circular dichroism spectroscopic analysis; assay type: nucleic-acid assay
Quadruplex DNA [4] = assay: Binding affinity to human telomeric G-quadruplex HT21 DNA assessed as increase in CD signal at 15 uM at 235 nm wavelength by circular dichroism spectroscopic analysis; assay type: nucleic-acid assay
Quadruplex DNA [5] = assay: Binding affinity to human telomeric G-quadruplex HT21 DNA assessed as increase in CD signal at 15 uM at 290 nm wavelength by circular dichroism spectroscopic analysis; assay type: nucleic-acid assay

Activity (Quadruplex DNA [1])	Kd (Quadruplex DNA [2])	Activity (Quadruplex DNA [3])	Activity (Quadruplex DNA [4])	Activity (Quadruplex DNA [5])	SMILES	IC50 (MIA PaCa-2)
inactive					O=C1c2ccc3c4c(c(NCC5CCN(c6ccc([N+](=O)[O-])c7nonc67)CC5)cc(c24)C(=O)N1CCCN1CCOCC1)C(=O)N(CCCN1CCOCC1)C3=O	359 nM
Active	600 nM				O=C(CNc1cc2c3c(ccc4c3c1C(=O)N(CCCN1CCOCC1)C4=O)C(=O)N(CCCN1CCOCC1)C2=O)NCC1CCN(c2ccc([N+](=O)[O-])c3nonc23)CC1	364 nM
					O=C1c2ccc3c4c(c(NCCN5CCCC5)cc(c24)C(=O)N1CCCN1CCOCC1)C(=O)N(CCCN1CCOCC1)C3=O	9.6 nM
Active	1720 nM	inactive	inactive	Active	O=C1c2ccc3c4c(c(NCCN5CCN(c6ccc([N+](=O)[O-])c7nonc67)CC5)cc(c24)C(=O)N1CCCN1CCOCC1)C(=O)N(CCCN1CCOCC1)C3=O	77.9 nM
